# System: CD1 female mouse brain lipidome
# Assay: Brain-region lipid levels (HPLC/MS/MS lipidomics) 2 h after single i.p. 3 mg/kg CP 55,940 vs vehicle
# Format: in vivo
# Parameters: N-arachidonoyl phenylalanine level, Mean / N-stearoyl tryptophan level, Mean / N-stearoyl proline level, Mean / N-stearoyl leucine level, Mean / N-stearoyl phenylalanine level, Mean / N-stearoyl serine level, Mean / N-stearoyl methionine level, Mean: unit: moles per gram
# Experimental: The Bloomington Institutional Animal Care and Use Committee of Indiana University reviewed and approved the animal procedures. Female mice from the CD1 strain were utilized to match our study examining THC’s effects on the brain lipidome ([Leishman et al., 2018]). Mice were given a single i.p. injection of either 3 mg/kg CP or 1:1:18 cremophor:ethanol:saline vehicle (please refer to the section “3 mg/kg CP Is Relevant for Synthetic Cannabinoid Abuse and Has Stronger Effects on the Female Mouse Brain Lipidome During Adolescence” for a justification of dose and use of female mice). Three different age groups were given injections: PND 35 and PND 50 adolescents, and adult mice (PND 113). At least eight mice in each age group received CP and at least eight received vehicle. Matching the THC study time course ([Leishman et al., 2018]), mice were sacrificed via rapid decapitation 2 h after injection. Brains were immediately removed and flash-frozen in liquid nitrogen, and then stored at -80°C until dissections were performed. Brains were dissected on an ice-cold dissection plate into the following regions: STR, HIPP, CER, THAL, CTX, HYP, MID, and STEM. These abbreviations for these brain areas will be used exclusively when discussing the results generated by these specific dissections. Each dissected area was immediately placed in liquid nitrogen and then stored at -80°C until used for lipid extraction.
# Tissue extracts were performed as previously described ([Bradshaw et al., 2006]; [Stuart et al., 2013]; [Raboune et al., 2014]; [Leishman et al., 2016a],[b], [2017], [2018]). First, samples were shock frozen in liquid nitrogen, weighed, and transferred to a centrifuge tube. The mass of the largest sample was multiplied by 50 to determine how many milliliters of HPLC-grade methanol (Fisher, Fair Lawn, NJ, United States) to add. Then, samples were spiked with 500 pmol deuterium-labeled NAGly (d8NAGly; Cayman Chemical, Ann Arbor, MI, United States). Samples were placed on ice in darkness for 2 h then individually homogenized and centrifuged at 19,000 × g for 20 min at 20°C. Supernatants were diluted with HPLC water (purified in house) to make a solution of 75% water, 25% supernatant. Lipids were partially purified on C18 solid phase extraction columns (Agilent, Palo Alto, CA, United States). A series of four elutions with 1.5 mL of 60%, 75%, 85%, and 100% methanol were collected ([Stuart et al., 2013]; [Leishman et al., 2016a],[b], [2018]).
# As previously described ([Bradshaw et al., 2006]; [Tan et al., 2006]; [Smoum et al., 2010]; [Stuart et al., 2013]; [Tortoriello et al., 2013]; [Raboune et al., 2014]; [Leishman et al., 2016a],[b], [2017], [2018]), samples were analyzed using an Applied Biosystems API 3000 triple quadrupole mass spectrometer with electrospray ionization (Foster City, CA, United States). Using an Agilent XDB-C18 reversed phase analytical column and optimized mobile phase gradients, 20 μL from each elution were chromatographed. Two Shimadzu 10ADvp pumps (Columbia, MD, United States) provided the pressure for gradient elution. Mobile phase A: 20% methanol, 80% water (v/v) and 1 mM ammonium acetate (Sigma, St. Louis, MO, United States). Mobile phase B: 100% methanol, 1 mM ammonium acetate. Every method run began with 0% mobile phase B, reached 100% mobile phase B flowing at 0.2 mL/min, and gradually returned to 0% mobile phase B.
# This screening library will be referred to as the lipidome when discussing data from this study. HPLC/MS/MS data were analyzed using Analyst software (Applied Biosystems) ([Bradshaw et al., 2006]; [Tan et al., 2006]; [Stuart et al., 2013]; [Tortoriello et al., 2013]; [Raboune et al., 2014]; [Leishman et al., 2016a],[b], [2017], [2018]). Chromatograms (Supplementary Figure 3) were generated by determining the retention time of analytes from the analytical column with a [M-1] or [M+1] parent peak and a fragmentation peak corresponding to the programmed values. […]
# [1] = cortex, PND 35, 3 mg/kg CP 55,940
# [2] = cortex, PND 35 adolescent female mice, 3 mg/kg CP 55,940
# [3] = hippocampus, PND 50, 3 mg/kg CP 55,940 vs Veh
structure (smiles),measurement,setting,value
"CCCCCCC(C)(C)c1ccc([C@@H]2C[C@H](O)CC[C@H]2CCCO)c(O)c1 [CP 55,940]",N-oleoyl valine Magnitude (x Veh level),[1],1.33 x Veh level
same,N-palmitoyl leucine Direction (rel to Veh),[1],↑
same,"N-palmitoyl leucine, Magnitude (x Veh level)",[1],1.52 x Veh level
same,N-palmitoyl serine Direction (rel to Veh),[1],↓
same,"N-palmitoyl serine, Magnitude (x Veh level)",[1],0.77 x Veh level
same,N-palmitoyl tyrosine Direction (rel to Veh),[1],↑
same,N-palmitoyl tyrosine Magnitude (x Veh level),[1],1.25 x Veh level
same,N-palmitoyl valine Direction (rel to Veh),[1],↑
same,N-palmitoyl valine Magnitude (x Veh level),[1],1.57 x Veh level
same,N-stearoyl serine Direction (rel to Veh),[1],↓
same,N-stearoyl serine Magnitude (x Veh level),[1],0.84 x Veh level
same,N-stearoyl tyrosine Direction (rel to Veh),[1],↑
same,N-stearoyl tyrosine Magnitude (x Veh level),[1],1.46 x Veh level
same,N-stearoyl valine Direction (rel to Veh),[1],↑
same,N-stearoyl valine Magnitude (x Veh level),[1],1.32 x Veh level
same,PGF2α Direction (rel to Veh),[1],↑
same,PGF2α Magnitude (x Veh level),[1],1.19 x Veh level
same,phosphoLEA Direction (rel to Veh),[1],↑
same,phosphoLEA Magnitude (x Veh level),[1],1.51 x Veh level
same,"2-arachidonoyl glycerol level, Mean",[2],1.2E-09
same,"2-linoleoyl glycerol level, Mean",[2],1.12E-10
same,"2-oleoyl glycerol level, Mean",[2],5.02E-09
same,"2-palmitoyl glycerol level, Mean",[2],5.49E-09
same,"6-ketoPGF1α level, Mean",[2],5.64E-12
same,"Arachidonic acid level, Mean",[2],1.78E-09
same,"Linoleic acid level, Mean",[2],6.06E-10
same,"N- stearoyl valine level, Mean",[2],1.46E-12
same,"N-arachidonoyl GABA level, Mean",[2],2.26E-11
same,"N-arachidonoyl alanine level, Mean",[2],2.81E-12
same,"N-arachidonoyl dopamine level, Mean",[2],BDL
same,"N-arachidonoyl ethanolamine level, Mean",[2],1.13E-10
same,"N-arachidonoyl glycine level, Mean",[2],1.35E-11
same,"N-arachidonoyl methionine level, Mean",[2],2.69E-13
same,"N-arachidonoyl phenylalanine level, Mean",[2],7.25E-13
same,"N-arachidonoyl proline level, Mean",[2],BDL
same,"N-arachidonoyl serine level, Mean",[2],2.41E-12
same,"N-arachidonoyl taurine level, Mean",[2],1.3E-10
same,"N-arachidonoyl tryptophan level, Mean",[2],BDL
same,"N-arachidonoyl tyrosine level, Mean",[2],8.47E-13
same,"N-docosahexaenoyl GABA level, Mean",[2],4.81E-12
same,"N-docosahexaenoyl alanine level, Mean",[2],7.37E-13
same,"N-docosahexaenoyl ethanolamine level, Mean",[2],1.21E-10
same,"N-docosahexaenoyl glycine level, Mean",[2],1.18E-12
same,"N-docosahexaenoyl leucine level, Mean",[2],1.02E-12
same,"N-docosahexaenoyl phenylalanine level, Mean",[2],5.48E-13
same,"N-docosahexaenoyl proline level, Mean",[2],BDL
same,"N-docosahexaenoyl serine level, Mean",[2],5.64E-12
same,"N-docosahexaenoyl tryptophan level, Mean",[2],BDL
same,"N-docosahexaenoyl tyrosine level, Mean",[2],5.7E-13
same,"N-docosahexaenoyl valine level, Mean",[2],2.57E-13
same,"N-linoleoyl GABA level, Mean",[2],3.78E-12
same,"N-linoleoyl alanine level, Mean",[2],6.3E-13
same,"N-linoleoyl ethanolamine level, Mean",[2],2.31E-10
same,"N-linoleoyl glycine level, Mean",[2],3.61E-13
same,"N-linoleoyl leucine level, Mean",[2],1.58E-13
same,"N-linoleoyl phenylalanine level, Mean",[2],1.48E-13
same,"N-linoleoyl proline level, Mean",[2],BDL
same,"N-linoleoyl serine level, Mean",[2],1.38E-11
same,"N-linoleoyl tryptophan level, Mean",[2],BDL
same,"N-nervonoyl valine level, Mean",[2],BDL
same,"N-oleoyl GABA level, Mean",[2],9.1E-12
same,"N-oleoyl alanine level, Mean",[2],2.8E-12
same,"N-oleoyl dopamine level, Mean",[2],BDL
same,"N-oleoyl ethanolamine level, Mean",[2],4.68E-10
same,"N-oleoyl glycine level, Mean",[2],5.53E-12
same,"N-oleoyl leucine level, Mean",[2],4.34E-13
same,"N-oleoyl methionine level, Mean",[2],4.2E-13
same,"N-oleoyl phenylalanine level, Mean",[2],2.01E-12
same,"N-oleoyl serine level, Mean",[2],5.9E-11
same,"N-oleoyl tyrosine level, Mean",[2],6.76E-13
same,"N-oleoyl valine level, Mean",[2],4.65E-13
same,"N-palmitoyl GABA level, Mean",[2],1.28E-11
same,"N-palmitoyl alanine level, Mean",[2],4.96E-12
same,"N-palmitoyl ethanolamine level, Mean",[2],1.43E-10
same,"N-palmitoyl glycine level, Mean",[2],1.28E-11
same,"N-palmitoyl leucine level, Mean",[2],1.76E-12
same,"N-palmitoyl methionine level, Mean",[2],1.41E-12
same,"N-palmitoyl phenylalanine level, Mean",[2],3.73E-12
same,"N-palmitoyl proline level, Mean",[2],7.7E-14
same,"N-palmitoyl serine level, Mean",[2],1.08E-11
same,"N-palmitoyl tryptophan level, Mean",[2],9.75E-13
same,"N-palmitoyl tyrosine level, Mean",[2],1.99E-12
same,"N-palmitoyl valine level, Mean",[2],1.52E-12
same,"N-stearoyl GABA level, Mean",[2],1.48E-11
same,"N-stearoyl alanine level, Mean",[2],1.04E-11
same,"N-stearoyl ethanolamine level, Mean",[2],5.63E-11
same,"N-stearoyl glycine level, Mean",[2],7.24E-12
same,"N-stearoyl leucine level, Mean",[2],1.55E-12
same,"N-stearoyl methionine level, Mean",[2],1.68E-12
same,"N-stearoyl phenylalanine level, Mean",[2],3.37E-12
same,"N-stearoyl proline level, Mean",[2],3.31E-14
same,"N-stearoyl serine level, Mean",[2],1.35E-11
same,"N-stearoyl tryptophan level, Mean",[2],3.26E-12
same,"N-stearoyl tyrosine level, Mean",[2],3.04E-13
same,"Oleic acid level, Mean",[2],6.83E-09
same,"PGE2 level, Mean",[2],4.31E-10
same,"PhosphoLEA level, Mean",[2],8.98E-12
same,2-linoleoyl glycerol Direction (relative to Veh),[3],↓
same,2-linoleoyl glycerol Magnitude (x Veh level),[3],0.73 x Veh level
same,6-ketoPGF1α Direction (relative to Veh),[3],↑
same,6-ketoPGF1α Magnitude (x Veh level),[3],1.46 x Veh level
same,"Linoleic acid, Direction (relative to Veh)",[3],↓

# — paper PMC6277767, “Broad and Region-Specific Impacts of the Synthetic Cannabinoid CP 55,940 in Adolescent and Adult Female Mouse Brains” (Frontiers in Molecular Neuroscience, 2018)
